According to US8563559B2 (Rigel Pharmaceuticals, Inc., priority 2006, dated 2013):
pIC50: −log10 of the molar value.

Target: T1, Axl (Homo sapiens, UniProt P30530)
T1 construct: endogenous in cells; host or cells: HeLa
T1 sequence (P30530 26-894): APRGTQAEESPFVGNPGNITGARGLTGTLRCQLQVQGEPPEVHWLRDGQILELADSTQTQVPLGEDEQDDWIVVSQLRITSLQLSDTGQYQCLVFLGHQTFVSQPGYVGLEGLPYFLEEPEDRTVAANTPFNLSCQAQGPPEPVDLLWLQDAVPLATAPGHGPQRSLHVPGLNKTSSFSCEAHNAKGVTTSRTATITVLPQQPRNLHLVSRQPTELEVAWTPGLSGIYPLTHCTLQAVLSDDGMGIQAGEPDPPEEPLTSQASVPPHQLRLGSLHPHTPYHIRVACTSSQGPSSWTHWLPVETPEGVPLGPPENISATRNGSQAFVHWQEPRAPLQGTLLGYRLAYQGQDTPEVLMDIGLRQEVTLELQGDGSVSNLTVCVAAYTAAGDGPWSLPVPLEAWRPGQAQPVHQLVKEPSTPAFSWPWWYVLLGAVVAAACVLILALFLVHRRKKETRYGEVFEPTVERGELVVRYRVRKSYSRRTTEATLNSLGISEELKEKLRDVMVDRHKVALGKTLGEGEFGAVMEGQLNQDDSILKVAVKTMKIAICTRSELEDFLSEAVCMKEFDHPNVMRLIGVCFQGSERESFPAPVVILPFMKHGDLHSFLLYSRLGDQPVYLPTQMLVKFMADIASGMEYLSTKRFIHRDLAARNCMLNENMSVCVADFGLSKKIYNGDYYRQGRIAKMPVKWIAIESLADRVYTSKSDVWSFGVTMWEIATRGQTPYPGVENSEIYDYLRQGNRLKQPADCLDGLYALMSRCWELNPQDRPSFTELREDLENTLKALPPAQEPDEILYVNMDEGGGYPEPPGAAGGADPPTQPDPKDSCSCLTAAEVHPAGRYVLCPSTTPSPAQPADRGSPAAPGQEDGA
Assay: Phospho-AKT in-cell Western assay (inhibition of Axl activity)
Type: cell-based
Conditions: Hela cells, Axl antibody cross-linking stimulation, phospho-Akt chemiluminescence normalized to relative cell number
Method: The compounds of the invention were tested in the following assay for their ability to inhibit Axl activity.
Phospho-AKT in-Cell Western Assay
• Cell culture plate: 96 well assay plate (Corning 3610), white, clear bottom, tissue-culture treated. • Cells: Hela cells. • Starvation medium: For Axl stimulation: 0.5% FCS (fetal calf serum) in DMEM, plus Axl/Fc (extracellular domain of AXL fused to immunoglobulin Fc region) (R&D, 154-AL) 500 ng/mL. • For EGF (epidermal growth factor) stimulation: 0.5% FCS in DMEM (Dulbecco's modified Eagles medium). • Poly-L-Lysine 0.01% solution (the working solution): 10 μg/ml, dilute In PBS (phosphate buffered saline). • Axl antibody cross-linking: • 1st: Mouse anti-Axl (R&D, MAB154). • 2nd: Biotin-SP-conjugated AffiniPure goat anti-mouse IgG (H+L) (Jackson ImmunoResearch #115-065-003). • Fixing buffer: 4% formaldehyde in PBS. • Wash buffer: 0.1% TritonX-100 in PBS. • Quenching buffer: 3% H2O2, 0.1% Azide in wash buffer, Azide and hydrogen peroxide 1(H2O2) are added fresh. • Blocking buffer: 5% BSA in TBST (tris buffered saline plus 0.1% Tween 20). • Primary antibody: Rabbit anti-human Phospho-Akt antibody (Cell Signaling 9271): 1×250 diluted in blocking buffer. • Secondary antibody: HRP (horse radish peroxidase)-conjugated Goat anti-Rabbit secondary, stock solution: Jackson ImmunoResearch (Goat anti-Rabbit HRP, #111-035-144) 1:1 diluted in glycerol, store at −20° C. The working solution: 1×2000 dilution of stock in blocking buffer. • Chemiluminescent working solution (Pierce, 37030): SuperSignal ELISA (enzyme linked immunosorbant assay) Pico Chemiluminescent substrate. • Crystal Violet solution: Stock: 2.5% Crystal violet in methanol, filtered and kept at ambient temperature. The working solution: dilute the stock 1:20 with PBS immediately before use. • 10% SDS: working solution: 5% SDS (sodium dodecylsulfate), diluted in PBS Methods: Day 1:
A 96 well TC (tissue culture treated) plate was coated with 10 μg/mL poly-L-Lysine at 37° C. for 30 min, washed twice with PBS, and air-dried for 5 minutes before cells were added. Hela cells were seeded at 10,000 cells/well and the cells were starved in 100 μL starvation medium containing Axl/Fc for 24 hrs.
The cells were pre-treated with test compounds by adding 100 μL of 2× test compound to the starvation medium on the cells. The cells were incubated at 37° C. for 1 hr before stimulation.
The cells were stimulated by Axl-antibody cross-linking as follows: A 5×1st/2nd Axl antibody mixture was made (37.5 μg/mL 1st/100 μg/mL 2nd) in starvation medium and nutated at 4° C. with thorough mixing for 1-2 hours for clustering. The resulting mix was warmed to 37° C. 50 μL of 5×Axl 1st/2nd of antibody cluster was added to the cells and the cells were incubated at 37° C. for 5 min.
After 5 minutes stimulation, the plate was flicked to remove medium and the plate was tapped onto paper towels. Formaldehyde (4.0% in PBS, 100 μL) was added to fix the cells and the cells were incubated at ambient temperature for 20 min without shaking.
The cells were washed with a plate washer buffer to remove the formaldehyde solution. The plate was flicked to removed excess wash buffer and tapped onto paper towels. Quenching buffer (100 μL) was added to each well and the cells were incubated at ambient temperature for 20 minutes without shaking.
The cells were washed with a plate washer buffer to remove the quenching buffer. Blocking buffer (100 μL) was added and the cells were incubated at ambient temperature for at least an hour with gentle shaking.
The cells were washed with a plate washer buffer and diluted primary antibody (50 μL) was added to each well (blocking buffer was added to the negative control wells instead). The plates were incubated overnight at 4° C. with gentle shaking.
The wash buffer was removed, diluted secondary antibody (100 μL) was added, and the cells were incubated at ambient temperature for 1 hour with gentle shaking. […]

Row | pIC50 (Table 1, formula (Ia)) | pIC50 (Table 3, formula (Ic)) | Structure (SMILES)
1 | 5.00 to 6.00 |  | CNC(=O)[C@H]1C[C@H]2C[C@H](C2(C)C)[C@@]1(C)Nc1nc(Nc2ccc(N3CCOCC3)cc2)ncc1Cl [Compound 2, (1R,2R,3S,5R)-2-(5-chloro-2-(4-morpholinophenylamino)pyrimidin-4-ylamino)-N,2,6,6-tetramethylbicyclo[3.1.1]heptane-3-carboxamide]
2 | > 6.00 |  | CC(C)NC(=O)[C@H]1C[C@H]2C[C@H](C2(C)C)[C@@]1(C)Nc1nc(Nc2ccc(OCCN3CCCC3)cc2)ncc1Cl [Compound 63, (1R,2R,3S,5R)-2-(5-chloro-2-(4-(2-(pyrrolidin-1-yl)ethoxy)phenylamino)pyrimidin-4-ylamino)-N-(1-methylethyl)-2,6,6-trimethylbicyclo[3.1.1]heptane-3-carboxamide]
3 |  | > 6.00 | CNC(=O)[C@H]1C[C@H]2C[C@H](C2(C)C)[C@@]1(C)Nc1nc(Nc2ccc3c(c2)OCCN3CCN(C)C)ncc1Cl [Compound 47, (1R,2R,3S,5R)-2-(5-chloro-2-((3,4-dihydro-4-(2-(dimethylamino)ethyl)-2H-benzo[b][1,4]oxazin-7-yl)amino)pyrimidin-4-ylamino)-N,2,6,6-tetramethylbicyclo[3.1.1]heptane-3-carboxamide]

Further lines, the molecule ahead of its results:

Row | Structure (SMILES) | pIC50 (Table 1, formula (Ia)) | pIC50 (Table 3, formula (Ic))
4 | CNC(=O)[C@H]1C[C@H]2C[C@H](C2(C)C)[C@@]1(C)Nc1nc(Nc2ccc(N3CCC(N4CCC(C)CC4)CC3)c(F)c2)ncc1Cl [Compound 54, (1R,2R,3S,5R)-2-(5-chloro-2-(3-fluoro-4-(4-(4-methylpiperidin-1-yl)piperidin-1-yl)phenylamino)pyrimidin-4-ylamino)-N,2,6,6-tetramethylbicyclo[3.1.1]heptane-3-carboxamide] | > 6.00 | 
5 | CNC(=O)[C@H]1C[C@H]2C[C@H](C2(C)C)[C@@]1(C)Nc1nc(Nc2ccc(N3CCN(CCO)CC3)cc2)ncc1Cl [Compound 41, (1R,2R,3S,5R)-2-(5-chloro-2-(4-(4-(2-hydroxyethyl)piperazin-1-yl)phenylamino)pyrimidin-4-ylamino)-N,2,6,6-tetramethylbicyclo[3.1.1]heptane-3-carboxamide] | > 6.00 | 
6 | CNC(=O)[C@H]1C[C@H]2C[C@H](C2(C)C)[C@@]1(C)Nc1nc(Nc2ccc(N3CCC(F)(F)CC3)c(Cl)c2)ncc1F [Compound 34, (1R,2R,3S,5R)-2-(5-fluoro-2-(3-chloro-4-(4,4-difluoropipendin-1-yl)phenylamino)pyrimidin-4-ylamino)-N,2,6,6-tetramethylbicyclo[3.1.1]heptane-3-carboxamide] | < 4.70 | 
7 | CNC(=O)[C@H]1C[C@H]2C[C@H](C2(C)C)[C@@]1(C)Nc1nc(Nc2ccc(N3CCC(N4CCC(C)CC4)CC3)c(F)c2)ncc1F [Compound 55, (1R,2R,3S,5R)-2-(5-fluoro-2-(3-fluoro-4-(4-(4-methylpiperidin-1-yl)piperidin-1-yl)phenylamino)pyrimidin-4-ylamino)-N,2,6,6-tetramethylbicyclo[3.1.1]heptane-3-carboxamide] | > 6.00 | 
8 | CNC(=O)[C@H]1C[C@H]2C[C@H](C2(C)C)[C@@]1(C)Nc1nc(Nc2ccc(N3CCN(C(C)=O)CC3)c(C(F)(F)F)c2)ncc1F [Compound 39, (1R,2R,3S,5R)-2-(5-fluoro-2-(3-trifluoromethyl-4-(4-acetylpiperazin-1-yl)phenylamino)pyrimidin-4-ylamino)-N,2,6,6-tetramethylbicyclo[3.1.1]heptane-3-carboxamide] | < 4.70 | 
9 | CC1(C)[C@H]2C[C@H](C(N)=O)[C@](C)(Nc3nc(Nc4ccc(OCCN5CCCC5)c(F)c4)ncc3Cl)[C@@H]1C2 [Compound 30, (1R,2R,3S,5R)-2-(5-chloro-2-(3-fluoro-4-(2-(pyrrolidin-1-yl)ethoxy)phenylamino)pyrimidin-4-ylamino)-2,6,6-trimethylbicyclo[3.1.1]heptane-3-carboxamide] | > 6.00 | 
